This is an account of results in PMC9298352, “Design, Synthesis and Structural Analysis of Glucocerebrosidase Imaging Agents” (Chemistry (Weinheim an Der Bergstrasse, Germany), 2021).

The target in this assay is T1, rhGBA (Homo sapiens, UniProt P04062).
T1 construct: made in house; host or cells: insect-baculovirus expression vector system (BEVS)
T1 sequence (P04062 40-536): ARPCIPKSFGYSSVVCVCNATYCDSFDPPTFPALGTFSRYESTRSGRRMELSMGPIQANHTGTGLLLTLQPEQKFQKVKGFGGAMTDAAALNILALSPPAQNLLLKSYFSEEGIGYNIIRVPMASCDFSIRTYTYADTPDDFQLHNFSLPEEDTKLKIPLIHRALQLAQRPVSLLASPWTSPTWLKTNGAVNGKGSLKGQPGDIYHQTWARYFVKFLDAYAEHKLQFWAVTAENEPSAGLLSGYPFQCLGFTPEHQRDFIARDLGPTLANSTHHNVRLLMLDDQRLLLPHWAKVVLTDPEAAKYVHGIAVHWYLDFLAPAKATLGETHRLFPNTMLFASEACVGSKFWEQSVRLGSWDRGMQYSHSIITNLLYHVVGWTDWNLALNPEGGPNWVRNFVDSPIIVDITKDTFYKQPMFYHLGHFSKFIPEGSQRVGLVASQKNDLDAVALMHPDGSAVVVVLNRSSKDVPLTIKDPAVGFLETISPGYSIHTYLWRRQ
The assay can be described thus: pH dependent activity-based labelling of rhGBA by ABP 6 and ABP 9. In kind it is biochemical. To be noted: rhGBA 200 nM, ABP 150 nM, pH 4.5, 5.2 or 7.4, 37 °C, 30 mins. The protocol: Cy5 tetrazine 20 (2.83 mg, 4.3 µmol) was added to a solution of norbornene 19 (0.94 mg, 2.38 µmol) in MeOH (4 mL). After stirring overnight at rt, the reaction mixture was concentrated in vacuo and purified by HPLC under neutral conditions (A: 50 mM NH4HCO3 in H2O; B: MeCN; 49% → 52%, A in B) yielding ABP 7 (2.12 mg, 2.07 µmol, 87%) as a mixture of regioisomers.
Biochemical Methods: General Experimental Details
Recombinant human GBA (rhGBA, imiglucerase, Cerezyme®) and GAA (rhGAA, alglucosidase alfa, Myozyme) were obtained from Sanofi Genzyme (Cambridge, MA, USA). HEK293T (CRL-3216) cell lines were purchased from ATCC (Manassas, VA, USA). […] All the tissue lysates were prepared in potassium phosphate lysis buffer (25 mM in pH 6.5, supplemented with 0.1% (v/v) Triton X-100 and protease inhibitor 1x cocktail (Roche)) via homogenization with silent crusher S equipped with Typ 7 F/S head (30 rpm x 1000, 3 × 7 sec) on ice and lysate concentration was determined with Bicinchoninic acid (BCA) Protein Assay Kit (PierceTM)[7]. […]
ABP 9 were diluted with DMSO into various concentrations (200x of the final concentration), and 5 µL of ABP at different concentrations were added into 1 mL fresh medium containing cells and incubated at 37°C for 24 h. […] The protein concentrations were determined using BCA kit. […]

On to `CCCCCCCCN1[C@@H]2[C@H](Cn3cc(CNC(=O)CCCCC[N+]4=C(/C=C/C=C/C=C5/N(C)c6ccccc6C5(C)C)C(C)(C)c5ccccc54)nn3)[C@@H](O)[C@H](O)[C@@H](O)[C@@H]21` (stereo partly shown) [ABP 6], for which the “pH dependence of rhGBA labelling” value was “greater labelling at acidin pH (4.5 and 5.2)”.
